The test system of the assay is CEM cells HIV-1 protection, formazan growth assay. As to the kind of experiment: NCI AIDS Antiviral Assay. Conditions: for IC50: measured here: growth of uninfected CEM cells. The method, boiled down: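 CEM (human) cells, HIV-1 infected vs uninfected, 5-point dosing, formazan growth read-out. Retest threshold 50% protection.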

Activity calls are given as the source filed them.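 How the source made its calls: active means compounds giving half or more protection of infected cells from virus-caused growth loss, again on retest; inactive means the rest.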

What is called EC50 is the midpoint of the concentration-response curve. By IC50 is commonly meant the concentration that gives 50% inhibition. A higher IC50 goes with a need for much substance. As to `COC(=O)c1ccc(CS(=O)(=O)c2ccccc2)cc1`, the EC50 was over 12.9 µM and the IC50 was over 12.9 µM.
For the compound `C=CCn1c(N)c(N=O)c(=O)n(C)c1=O`, the EC50 was over 200 µM and the IC50 was over 200 µM.
Turning to `Cc1cc2nnn(C3CCCCO3)c2cc1C` (centres undefined), the EC50 was over 200 µM and the IC50 is 174 µM.
On to `COc1c(C)c(C/C=C(\C)CC/C=C(\C)CC/C=C(\C)CC/C=C(\C)CCC=C(C)C)c(OC)c(OC)c1OC`, for which the EC50 was over 200 µM and the IC50 was 31.6 µM.
`O=S1(=O)C2C=CCC1C(O)CC2` (centres undefined): the EC50 was over 933 µM and the IC50 is over 933 µM.
In the case of `CC(=O)Nc1ccccc1/C=C/c1ccccn1`, the EC50 is over 1050 µM and the IC50 was 407 µM.
For the compound `O=c1[nH]nc(Cc2ccc(Cl)cc2)n1Nc1ccccc1`, the EC50 was over 200 µM and the IC50 was over 200 µM.
Turning to `CNC(=O)Nn1c(SC)nc2ccccc21`, the EC50 is over 200 µM and the IC50 was over 200 µM.
On to `COc1ccc(/C=C2\C(=O)N(C(=O)c3ccc(NC(C)=O)cc3)N=C2C)cc1`, for which the EC50 is over 19.1 µM and the IC50 is over 19.1 µM.
For the compound `CCOC(=O)[C@H]1Nc2ccc(Cl)cc2[C@H]2OCC[C@@H]12`, the EC50 was over 178 µM and the IC50 is over 178 µM.
In the case of `Cc1sccc1C(=S)Nc1ccc(Cl)c(/C=N/OC(C)(C)C)c1`, the EC50 was 14.1 µM and the IC50 was determined as 14.8 µM.
`O=[N+]([O-])c1ccc(C2N3CCCCC3[C@@H]3c4[nH]c5ccccc5c4CCN23)cc1` (some centres undefined): the EC50 was over 34.7 µM and the IC50 is over 34.7 µM.
Take `COc1ccc(OC)c(N=Nc2cc(OC)c(N=Nc3c(O)c4ccccc4[nH]c3=O)cc2Cc2ccccc2C(=O)O)c1`: the EC50 was over 50.1 µM and the IC50 stood at 31.6 µM.
Regarding `OC[C@H]1CC(c2nn[nH]n2)[C@H](O)[C@@H]1O` (some centres undefined), the EC50 was over 200 µM and the IC50 was over 200 µM.
`Cc1c(C)c2c(c(N)c1C#N)C(=O)N(O)C2=O`: the EC50 is over 200 µM and the IC50 was over 200 µM.
For `CC[C@]1(c2ccc3c(c2)OCO3)C=[N+]([O-])O[C@H](OC2CCCC2(c2ccccc2)c2ccccc2)[C@@H]1OC(C)=O` (some centres undefined), the EC50 was over 200 µM and the IC50 worked out at 4.07 µM.
Take `COc1cc2c(c(OC)c1OC)-c1ccc(NCCCNc3ccc4c(cc3=O)C(NC(C)=O)CCc3cc(OC)c(OC)c(OC)c3-4)c(=O)cc1C(NC(C)=O)CC2` (centres undefined): the result was inactive.
On to `CN(/N=C/c1cccc2cccnc12)c1ccc([N+](=O)[O-])cc1[N+](=O)[O-]`, for which the result was inactive.
As for `O=C(NCCCN(CCCCN(CCCNC(=O)C(F)(F)F)Cc1ccc2ccccc2c1)Cc1ccc2ccccc2c1)C(F)(F)F`, the outcome was inactive.
With `Cc1nc2c(cc1C(=O)N/N=C/c1ccc([N+](=O)[O-])cc1)c(=O)n(C)c(=O)n2C`, the EC50 is over 200 µM and the IC50 is over 200 µM.
Consider `COc1ccc(C=C2C(=O)OC(C)(C)OC2=O)cc1OC`, for which the EC50 is over 170 µM and the concentration for half-maximal inhibition (IC50) was over 170 µM.
On to `CCOC(=O)CSc1nc2ccccc2c(=O)n1N`, for which the EC50 was over 200 µM and the IC50 was over 200 µM.
As for `CN(C)N1C(=O)C(=O)N(c2cccc3ccccc23)C1=O`, the EC50 was over 200 µM and the IC50 is over 200 µM.
With `COC(=O)C1NC(C)(C(=O)OC)C2C(=O)NC(=O)C12` (centres undefined), the EC50 was over 933 µM and the half-inhibitory concentration (IC50) was over 933 µM.
Take `CCC(=O)c1c(O)c2ccccc2oc1=O`: the EC50 was over 200 µM and the IC50 was over 100 µM.
As for `CCSC(SCC)=C1C(=O)N(c2ccccc2)N=C1C`, the EC50 is over 44.7 µM and the IC50 was over 44.7 µM.
Regarding `NC(CCCCNCC(N)C(=O)O)C(=O)O` (centres undefined), the EC50 was over 933 µM and the IC50 is over 933 µM.
As to `CC(C)=N.[C-]#[O+].[C-]#[O+].[C-]#[O+].[C-]#[O+].[C-]#[O+].[W]`, the EC50 is over 13.8 µM and the IC50 was over 13.8 µM.
`CC1(CC(=O)O)C(=O)CCCC1=O`: the result was inactive.
As for `COc1cc(C)c2c(c1C)OC(=O)c1c(C)c(Cl)c(O)c(C=O)c1O2`, the EC50 was over 49 µM and the IC50 was over 49 µM.
`CN1C(=O)C2(C#N)C3(CCCC3)C2(C#N)C1=O` (centres undefined): the EC50 is over 43.7 µM and the IC50 was over 43.7 µM.
Regarding `COc1cc2c3cc1Oc1c(OC)c(OC)cc4c1[C@H](Cc1cc5c(c(c1)Oc1ccc(cc1)CC3N(C)CC2)OCO5)N(C)CC4` (some centres undefined), the result was inactive.
`c1csc(-c2cc(-c3cccs3)c(-c3ccsc3)s2)c1`: the EC50 was over 200 µM and the IC50 was determined as 33.1 µM.
Take `CC(C)(C)C1CCC2c3c([nH]c4ccccc34)C3C(=O)N(c4ccc(C#N)cc4)C(=O)C3C2C1` (centres undefined): the EC50 was over 200 µM and the IC50 came to 10 µM.
For `O=C1C2=Cc3ccccc3CCN2c2ccccc21`, in that order: over 200 µM and 26.9 µM.
Take `C[S+]1CC2C3CC(C#N)C(C3)C2C1` (centres undefined): the EC50 is over 275 µM and the IC50 is over 275 µM.
Consider `CCCCCCCC(=O)OCC1OC(OC)C(NC(=O)N(CCCl)N=O)C(O)C1O` (centres undefined), for which the EC50 was over 79.4 µM and the IC50 worked out at 8.51 µM.
Consider `COc1ccc(S(=O)(=O)c2ccccc2[N+](=O)[O-])cc1`, for which the outcome was active.
Take `COC(=O)C1(C)CCCC2(C)c3cc(OC)ccc3C(=O)C(Cl)C12` (centres undefined): the EC50 was over 200 µM and the 50% inhibitory concentration (IC50) is 30.2 µM.
Turning to `COc1ccc(C23OCN(c4ccccc4)C2(c2ccc(OC)cc2)c2ccccc2N3C)cc1` (centres undefined), the EC50 was over 200 µM and the IC50 was over 200 µM.
In the case of `COc1cccc(/C=N/[N-]C(N)=O)c1[O-].[Cu+2].[OH3+].c1ccc(-c2ccccn2)nc1`, the result was inactive.
Same read-out and setting: under `COc1ccc(CSc2ccccc2Cn2cccc2)cc1OC` stands “inactive”.
For the compound `CCCCOP(C)(=O)C(NC(=O)OCC)(C(F)(F)F)C(F)(F)F` (centres undefined), the EC50 is over 200 µM and the IC50 was over 200 µM.
For `COc1ccc(NC(=O)C2C(=O)N(c3ccc(OC)cc3)C(=O)/C2=N\N)cc1` (centres undefined), the EC50 is over 1.45 µM and the IC50 was over 1.45 µM.
`C=C=C(Sc1ccccc1)C(C)(C)O`: the EC50 is over 251 µM and the IC50 came out at 158 µM.
`Cc1c(Cc2ccccc2)c(=O)oc2cc(O)ccc12`: the EC50 was over 97.7 µM and the IC50 came to 93.3 µM.
Turning to `CC(=O)CC(C)=O.CCN(CC)CC[C-]=O.[Pd+2]`, the EC50 is over 200 µM and the IC50 was found to be 5.89 µM.
As to `CN1CCC2(CC1)C(C#N)C(=O)NC(=O)C2C#N` (centres undefined), the EC50 was over 339 µM and the 50% inhibitory concentration (IC50) is over 339 µM.
As to `O=c1ccc2c(O)c3ccoc3cc2o1`, the EC50 is over 110 µM and the IC50 came out at 93.3 µM.
For the compound `CC(=O)N/C(=C\c1ccc(/C=C(\NC(C)=O)c2nc3ccc(Cl)cc3[nH]2)cc1)c1nc2ccccc2[nH]1`, the outcome was inactive.
As for `C[C@H]1CCC2C(CN3CCCCC3)C(=O)OC2[C@]2(C)C(=O)CC(N3CCCCC3)C12O` (some centres undefined), the outcome was inactive.
For `CC1=NN2C(c3ccc(C)cc3)=CSC2=NC(C)(C)C1`, the EC50 was over 174 µM and the IC50 turned out to be 141 µM.
On to `COc1ccc(C2c3[nH]c4ccccc4c3CCN2O)cc1` (centres undefined), for which the result was inactive.
With `Cc1cccc(Nc2nc3ccccc3nc2NS(=O)(=O)c2ccccc2)c1`, the EC50 was over 100 µM and the IC50 is 15.5 µM.
With `N#CCc1ccc(C(C#N)/C(CCCC(=O)Nc2cccc([N+](=O)[O-])c2)=N/NC(N)=S)cc1` (centres undefined), the result was inactive.
`COc1cc2c(cc1OC)C(Cc1ccccc1CCCl)=NCC2`: the EC50 is over 200 µM and the IC50 was found to be 29.5 µM.
For `CCN(CC)CCOc1ccc2c(c1O)C(=O)c1ccccc1C2=O`, in that order: over 74.1 µM and 3.98 µM.
For `C=CCSCC1Nc2cc(Cl)c(S(N)(=O)=O)cc2S(=O)(=O)N1C` (centres undefined), in that order: over 234 µM and 91.2 µM.
As to `COC(=O)CCCC1(CCCC(=O)OC)CCCCCCCCC(CCCC(=O)OC)(CCCC(=O)OC)C(=O)C1=O`, the EC50 was over 200 µM and the IC50 is 35.5 µM.
For `CC(C)CNC(=O)CCc1cccc2c1oc1c(CCN)cccc12`, in that order: over 200 µM and 14.8 µM.
On to `Cc1cc2c(c(C(=O)O)c1C)-c1cccc(F)c1C2=O`, for which the outcome was inactive.
Consider `CC(O)CC(O)(C(F)(F)F)C(F)(F)F` (centres undefined), for which the EC50 was over 200 µM and the IC50 is over 200 µM.
As to `COc1nc(NC2OCC(OC(C)=O)C(OC(C)=O)C2OC(C)=O)c(C(=O)CCl)c(=O)n1C` (centres undefined), the result was inactive.
In the case of `C=CCC(CCC(C)=O)(C(=O)OCC)C(=O)OCC`, the EC50 is over 200 µM and the IC50 was over 200 µM.
Take `COc1cccc(C=O)c1[O-].COc1cccc(C=O)c1[O-].[Cu+2]`: the EC50 is over 97.7 µM and the IC50 was 9.33 µM.
For `CC1(C)C2CC1C(/C=N\OCC(=O)O)=CC2=O` (centres undefined), in that order: over 200 µM and over 200 µM.
On to `COc1ccc2nc3c([N+](=O)[O-])ccc4c3c(c2c1)N=CN4CCCN(C)C`, for which the EC50 is 0.141 µM and the half-inhibitory concentration (IC50) is 0.468 µM.
Take `COc1ccc(N2C(N)=C(C#N)C(C#N)(C#N)C2c2cccc([N+](=O)[O-])c2)cc1` (centres undefined): the EC50 is over 200 µM and the IC50 amounted to 5.89 µM.
For `CC(C)C1N2CCCCC2[C@@H]2c3[nH]c4ccccc4c3CCN12` (some centres undefined), in that order: over 81.3 µM and over 81.3 µM.
For the compound `O=C1NC23CC=CCC12CCC3` (centres undefined), the EC50 is over 1230 µM and the IC50 was over 1230 µM.
As for `COC1OC2COC1(OCc1ccccc1)C1OC(C)(C)OC21` (centres undefined), the EC50 is over 200 µM and the IC50 was over 200 µM.
`Oc1c(OCc2nnc(CCCCCCCCc3nnc(COc4ccc5ccccc5c4O)o3)o2)ccc2ccccc12`: the EC50 is over 200 µM and the IC50 was over 200 µM.
`C=C[C@@]1(O)CCCC[C@@H]1CC(Sc1ccccc1)Sc1ccccc1`: the EC50 is over 200 µM and the half-maximal inhibitory concentration (IC50) is 19.5 µM.
For `O=S1(=O)C[C@@H](O)[C@H](O)CS1`, the EC50 is 16.2 µM and the half-maximal inhibitory concentration (IC50) worked out at 166 µM.
